Source: US20250082635A1 (Janssen Pharmaceutica NV, priority 2023, published 2025)
Like-named read-outs stand apart in the source and are kept apart here.

How the values were obtained:
clinical [1] = conditions: both, human, plasma, % fu, fraction unbound (mean (SD)), Day 1, 2 h
Experimental: (§1) Participants entered the study site on the morning of Day 1 and remained there until after collection of the 96 hours PK sample on Day 5. […] In addition, blood samples for determination of the plasma protein binding (PPB) were collected.
(§2) For all cohorts, 2-hours fraction unbound values were used to derive the unbound plasma concentrations and these unbound concentrations were used to derive unbound PK parameters.

plasma protein = assay: clinical; conditions: Day 1, 2 h
Experimental: as §1, §2

[2] = for mean AUC∞ compared to normal hepatic function / mean Cmax compared to normal hepatic function / mean Cmax,unbound compared to normal hepatic function: arithmetic means
From the text: (§3) Participants were screened for eligibility for study entry. The diagnosis of hepatic impairment was based on medical history, a Child-Pugh Clinical Assessment Score of 5 to 6 (Grade A, mild hepatic impairment), 7 to 9 (Grade B, moderate hepatic impairment), and 10 to 15 (Grade C, severe hepatic impairment), and the presence of physical signs (liver firmness to palpitation, splenic enlargement, spider angioma, palmar erythema, parotid hypertrophy, testicular atrophy, or gynecomastia) or other modalities (computed tomography, ultrasound, magnetic resonance imaging, radionuclide liver/spleen scan or abdominal laparoscopy, or liver biopsy). The underlying disease leading to hepatic impairment was documented (e.g., hepatitis B, hepatitis C, alcoholic steatohepatitis, nonalcoholic fatty liver disease [hereditary/metabolic], or other). Hepatic encephalopathy grading was done by the Principal Investigator. The individual components of the Child-Pugh Clinical Assessment Score were documented. Participants with liver transplant were excluded.
(§4) The clinical study of Example 1 consisted of a screening phase (within 21 days before study intervention administration); an open-label treatment phase (Day 1 to Day 5) including the end-of-study (EOS) or withdrawal assessments (performed on Day 5 or upon early withdrawal). The study duration for each participant was approximately 4 weeks from screening (Day-21 to Day-1) to EOS assessments.
(§5) Healthy men and women between 18 and 79 years of age, inclusive; with a body mass index (BMI) between 18 and 38 kg/m^2, inclusive, and a body weight of not less than 50 kg were enrolled in the study according to their hepatic function. The degree of hepatic impairment was based on Child Pugh's classification. Using this classification, participants were grouped on the basis of 2 clinical features (hepatic encephalopathy and ascites) and 3 laboratory-based parameters (albumin, bilirubin, and prothrombin time).
(§6) The study included 24 human patients divided into 3 different cohorts: • Cohort 1:8 healthy participants with normal hepatic function and no evidence of liver damage and no evidence of liver damage, • Cohort 2:8 participants with mild hepatic impairment (having a Child-Pugh score of 5 to 6), and • Cohort 3:8 participants with moderate hepatic impairment (Child-Pugh score of 7 to 9).
(§7) Based on hepatic impairment classified during screening, 8 participants with mild hepatic impairment (Cohort 2) and 8 participants with moderate hepatic impairment (Cohort 3) were enrolled. After 8 participants each in Cohort 2 and Cohort 3 had completed study related procedures including the 96 hours PK sample, participants with normal hepatic function (Cohort 1) were enrolled. A group matching procedure was used to demographically match healthy participants having normal hepatic function with respect to sex, age, and weight to the participants enrolled in Cohort 2 and Cohort 3. […] Participants in the control group (Cohort 1) who tested positive for Hepatitis B surface antigen (HbsAg) or Hepatitis C antibodies were not permitted in the study.
(§8) In the normal hepatic function group (Cohort 1), at least 3 participants with an individual value above and at least 3 participants with an individual value below the mean age/mean body weight values of the combined mild (Cohort 2) and moderate (Cohort 3) hepatic impairment groups were enrolled. Two to 4 females were enrolled in each of the cohorts.
(§9) Participants remained in supine position from the predose assessments until 4-hour postdose but were allowed short upright stints for pressing needs (e.g., bathroom visits) and during consumption of meal.

clinical [3] = conditions: both, human, in vivo
From the text: as §3, §4, §5, §6, §7, §8, §9

[4] = Estimated contribution of active metabolites to efficacy of seltorexant; conditions: active metabolite
[5] = 10 mg, Cohort 3 moderate hepatic impairment
[6] = 20 mg, Cohort 1 normal hepatic function
[7] = 20 mg, Cohort 2 mild hepatic impairment
[8] = Cohort 1 normal hepatic function
[9] = Cohort 2 mild hepatic impairment
[10] = Cohort 3 moderate hepatic impairment
[11] = dose normalized moderate hepatic impairment vs normal, total
[12] = dose normalized moderate hepatic impairment vs normal, unbound
[13] = mild hepatic impairment vs normal, total
[14] = mild hepatic impairment vs normal, unbound
[15] = 10 mg, AUClast, geometric mean, Cohort 3 (Test) moderate hepatic impairment, 10 mg dose normalized to 20 mg, total
[16] = 10 mg, AUClast, geometric mean, Cohort 3 (Test) moderate hepatic impairment, 10 mg dose normalized to 20 mg, unbound
[17] = 10 mg, AUC∞ (mean (SD)), Cohort 3 moderate hepatic impairment, 10 mg dose normalized to 20 mg, total in plasma
[18] = 10 mg, AUC∞, geometric mean, Cohort 3 (Test) moderate hepatic impairment, 10 mg dose normalized to 20 mg, total
[19] = 10 mg, AUC∞, geometric mean, Cohort 3 (Test) moderate hepatic impairment, 10 mg dose normalized to 20 mg, unbound
[20] = 10 mg, Cmax, geometric mean, Cohort 3 (Test) moderate hepatic impairment, 10 mg dose normalized to 20 mg, total
[21] = 10 mg, Cmax, geometric mean, Cohort 3 (Test) moderate hepatic impairment, 10 mg dose normalized to 20 mg, unbound
[22] = 10 mg, […], Cohort 3 moderate hepatic impairment, 10 mg dose normalized to 20 mg, total in plasma
[23] = 20 mg, AUClast, geometric mean, Cohort 1 (Reference) normal hepatic function, total
[24] = 20 mg, AUClast, geometric mean, Cohort 1 (Reference) normal hepatic function, unbound
[25] = 20 mg, AUClast, geometric mean, Cohort 2 (Test) mild hepatic impairment, total
[26] = 20 mg, AUClast, geometric mean, Cohort 2 (Test) mild hepatic impairment, unbound
[27] = 20 mg, AUC∞, geometric mean, Cohort 1 (Reference) normal hepatic function, total
[28] = 20 mg, AUC∞, geometric mean, Cohort 1 (Reference) normal hepatic function, unbound
[29] = 20 mg, AUC∞, geometric mean, Cohort 2 (Test) mild hepatic impairment, total
[30] = 20 mg, AUC∞, geometric mean, Cohort 2 (Test) mild hepatic impairment, unbound
[31] = 20 mg, Cmax, geometric mean, Cohort 1 (Reference) normal hepatic function, total
[32] = 20 mg, Cmax, geometric mean, Cohort 1 (Reference) normal hepatic function, unbound
[33] = 20 mg, Cmax, geometric mean, Cohort 2 (Test) mild hepatic impairment, total
[34] = 20 mg, Cmax, geometric mean, Cohort 2 (Test) mild hepatic impairment, unbound

Q: Which results are given for `Cc1cc(CO)nc(N2CC3CN(C(=O)c4c(F)cccc4-n4nccn4)CC3C2)n1` (stereo not shown) [M12]?
A: fraction unbound at 2 h (clinical [1]; [5]): 0.114; fraction unbound at 2 h (clinical [1]; [6]): 0.0545; fraction unbound at 2 h (clinical [1]; [7]): 0.0707; % fb (mean (SD)) (plasma protein; [8]): 94.6 (1.91) %; % fb (mean (SD)) (plasma protein; [9]): 92.9 (4.58) %; % fb (mean (SD)) (plasma protein; [10]): 88.6 (3.84) %; mean AUC∞ compared to normal hepatic function [2, 11]: comparable; mean Cmax compared to normal hepatic function [2, 11]: 0.78 fold; mean Cmax,unbound compared to normal hepatic function [2, 12]: 1.71 fold; Cmax compared to normal hepatic function, based on GMR [2, 11]: 0.79 fold; mean AUC∞ compared to normal hepatic function [2, 13]: 1.80 fold; mean Cmax compared to normal hepatic function [2, 13]: comparable; mean Cmax,unbound compared to normal hepatic function [2, 14]: 1.46 fold; Cmax compared to normal hepatic function, based on GMR [2, 13]: ~1.11 fold; AUC∞,unbound compared to normal hepatic function, based on GMR [2, 14]: ~1.99 fold; AUC(0-t) (clinical [3]; [15]): 2380 ng·h/mL; AUC(0-t) (clinical [3]; [16]): 258 ng·h/mL; AUC(0-inf) (clinical [3]; [17]): 2580 ng·h/mL; AUC(0-inf) (clinical [3]; [18]): 2400 ng·h/mL; AUC(0-inf) (clinical [3]; [19]): 262 ng·h/mL; Cmax (clinical [3]; [20]): 253 ng/mL; Cmax (clinical [3]; [21]): 27.5 ng/mL; AUC(0-t) (clinical [3]; [22]): 2550 ng·h/mL; Cmax (clinical [3]; [22]): 261 ng/mL; AUC(0-t) (clinical [3]; [23]): 2310 ng·h/mL; AUC(0-t) (clinical [3]; [24]): 118 ng·h/mL; AUC(0-t) (clinical [3]; [25]): 3950 ng·h/mL; AUC(0-t) (clinical [3]; [26]): 234 ng·h/mL; AUC(0-inf) (clinical [3]; [27]): 2320 ng·h/mL; AUC(0-inf) (clinical [3]; [28]): 119 ng·h/mL; AUC(0-inf) (clinical [3]; [29]): 3980 ng·h/mL; AUC(0-inf) (clinical [3]; [30]): 236 ng·h/mL; Cmax (clinical [3]; [31]): 320 ng/mL; Cmax (clinical [3]; [32]): 16.3 ng/mL; Cmax (clinical [3]; [33]): 355 ng/mL; Cmax (clinical [3]; [34]): 21 ng/mL; AUC(0-t) (clinical [3]; po, 10 mg): 1280 ng·h/mL; Cmax (clinical [3]; po, 10 mg): 131 ng/mL; Tmax (clinical [3]; po, 10 mg): 2.25 h; half-life (clinical [3]; po, 10 mg): 4.07 h; AUC(0-inf) (clinical [3]; po, 20 mg): 4860 ng·h/mL; AUC(0-t) (clinical [3]; po, 20 mg): 4830 ng·h/mL; Cmax (clinical [3]; po, 20 mg): 368 ng/mL; half-life (clinical [3]; po, 20 mg): 3.44 h

Q: With `Cc1nc(N2CC3CN(C(=O)c4c(F)cccc4-n4nccn4)CC3C2)nc(C)c1O` (stereo not shown) [M16] as the compound, how does the fraction unbound at 2 h (clinical [1]; [5]) read?
A: Its fraction unbound at 2 h is 0.0901.

Q: What about the fraction unbound at 2 h (clinical [1]; [6]) of the same compound?
A: The fraction unbound at 2 h was 0.04.

Q: And the fraction unbound at 2 h (clinical [1]; [7])?
A: The fraction unbound at 2 h was 0.0568.

Q: And the “% fb (mean (SD))” value (plasma protein; [8])?
A: Its value is 96.0 (1.43) %.

Q: What about the “% fb (mean (SD))” value (plasma protein; [9]) of the same compound?
A: Its value is 94.3 (3.95) %.

Q: And the “% fb (mean (SD))” value (plasma protein; [10])?
A: The value was 91.0 (3.14) %.

Q: What about the “contribution to efficacy of seltorexant (activity)” value [4] of the same compound?
A: The value was under 4%.

Q: What about the “mean AUC∞ compared to normal hepatic function” value [2, 11] of the same compound?
A: Its value is 0.74 fold.

Q: What about the “mean Cmax compared to normal hepatic function” value [2, 11] of the same compound?
A: Its value is 0.62 fold.

Q: What about the “AUC∞ compared to normal hepatic function, based on GMR” value [2, 11] of the same compound?
A: The value was about 0.83 fold.

Q: What about the “AUClast,unbound compared to normal hepatic function, based on GMR” value [2, 12] of the same compound?
A: The value was about 1.82 fold.

Q: What about the “Cmax,unbound compared to normal hepatic function, based on GMR” value [2, 12] of the same compound?
A: Its value is about 1.48 fold.

Q: What about the “mean AUC∞ compared to normal hepatic function” value [2, 13] of the same compound?
A: Its value is “comparable”.

Q: What about the “mean Cmax compared to normal hepatic function” value [2, 13] of the same compound?
A: Its value is 0.75 fold.

Q: What about the “AUClast,unbound compared to normal hepatic function, based on GMR” value [2, 14] of the same compound?
A: The value was about 1.25 fold.

Q: And the “Cmax,unbound compared to normal hepatic function, based on GMR” value [2, 14]?
A: The value was 0.96 fold.

Q: And the AUC(0-t) (clinical [3]; [15])?
A: The AUC(0-t) was 620 ng·h/mL.

Q: What about the AUC(0-t) (clinical [3]; [16]) of the same compound?
A: The AUC(0-t) was 53 ng·h/mL.

Q: And the AUC(0-inf) (clinical [3]; [17])?
A: The AUC(0-inf) was 683 ng·h/mL.

Q: What about the AUC(0-inf) (clinical [3]; [18]) of the same compound?
A: Its AUC(0-inf) is 674 ng·h/mL.

Q: And the AUC(0-inf) (clinical [3]; [19])?
A: The AUC(0-inf) was 57.6 ng·h/mL.

Q: What about the Cmax (clinical [3]; [20]) of the same compound?
A: Its Cmax is 41.8 ng/mL.

Q: And the Cmax (clinical [3]; [21])?
A: The Cmax was 3.57 ng/mL.

Q: And the AUC(0-t) (clinical [3]; [22])?
A: Its AUC(0-t) is 631 ng·h/mL.

Q: And the Cmax (clinical [3]; [22])?
A: The Cmax was 43 ng/mL.

Q: What about the AUC(0-t) (clinical [3]; [23]) of the same compound?
A: Its AUC(0-t) is 778 ng·h/mL.

Q: And the AUC(0-t) (clinical [3]; [24])?
A: Its AUC(0-t) is 29 ng·h/mL.

Q: And the AUC(0-t) (clinical [3]; [25])?
A: Its AUC(0-t) is 783 ng·h/mL.

Q: And the AUC(0-t) (clinical [3]; [26])?
A: Its AUC(0-t) is 36.3 ng·h/mL.

Q: What about the AUC(0-inf) (clinical [3]; [27]) of the same compound?
A: Its AUC(0-inf) is 812 ng·h/mL.

Q: And the AUC(0-inf) (clinical [3]; [28])?
A: The AUC(0-inf) was 30.3 ng·h/mL.

Q: And the AUC(0-inf) (clinical [3]; [29])?
A: Its AUC(0-inf) is 807 ng·h/mL.

Q: What about the AUC(0-inf) (clinical [3]; [30]) of the same compound?
A: The AUC(0-inf) was 37.4 ng·h/mL.

Q: What about the Cmax (clinical [3]; [31]) of the same compound?
A: Its Cmax is 64.6 ng/mL.

Q: And the Cmax (clinical [3]; [32])?
A: The Cmax was 2.41 ng/mL.

Q: And the Cmax (clinical [3]; [33])?
A: Its Cmax is 50 ng/mL.

Q: And the Cmax (clinical [3]; [34])?
A: Its Cmax is 2.32 ng/mL.

Q: What about the AUC(0-inf) (clinical [3]; po, 10 mg) of the same compound?
A: Its AUC(0-inf) is 342 ng·h/mL.

Q: And the AUC(0-t) (clinical [3]; po, 10 mg)?
A: The AUC(0-t) was 315 ng·h/mL.

Q: And the Cmax (clinical [3]; po, 10 mg)?
A: The Cmax was 21.5 ng/mL.

Q: What about the Tmax (clinical [3]; po, 10 mg) of the same compound?
A: The Tmax was 2.5 h.

Q: And the half-life (clinical [3]; po, 10 mg)?
A: Its half-life is 10.2 h.

Q: What about the AUC(0-inf) (clinical [3]; po, 20 mg) of the same compound?
A: The AUC(0-inf) was 851 ng·h/mL.

Q: What about the AUC(0-t) (clinical [3]; po, 20 mg) of the same compound?
A: The AUC(0-t) was 827 ng·h/mL.

Q: What about the Cmax (clinical [3]; po, 20 mg) of the same compound?
A: Its Cmax is 51.5 ng/mL.

Q: What about the Tmax (clinical [3]; po, 20 mg) of the same compound?
A: Its Tmax is 2 h.

Q: What about the half-life (clinical [3]; po, 20 mg) of the same compound?
A: The half-life was 13.4 h.
